Assays:
[1] = tested on: subject with sexual dysfunction related to penis size below the 10th percentile; assay: Daily oral cinchomeronic acid in a subject with penis size below the 10th percentile; assay type: in vivo, human
Source text: A subject who has reported long-term sexual dysfunction related to a penis size below the 10th percentile is given an oral formulation of cinchomeronic acid, at a daily dose sufficient to maintain therapeutic blood levels of the agent.

[2] = tested on: subject diagnosed with Female Sexual Arousal Disorder (FSAD); assay: Daily oral fusicoccin in a subject with Female Sexual Arousal Disorder; assay type: in vivo, human; settings: daily oral formulation
Source text: A subject who has been diagnosed with Female Sexual Arousal Disorder (FSAD) for over 6 months is given a daily oral formulation of fusicoccin, at a dose sufficient to maintain therapeutic blood levels of the agent. […] The use of this preparation is well accepted by both the subject and partner.

[3] = tested on: proton pump (plasma membrane H+ ATPases); settings: plants; cited from earlier work

Compound	adverse side effects [1]	penile circumference and length compared to before treatment ([1]; two months after beginning treatment)	adverse side effects [2]	symptoms, including lubrication-swelling response during sexual activity ([2]; one week after beginning treatment)	proton pumping across the plasma membrane [3]
O=C(O)c1ccncc1C(=O)O [cinchomeronic acid, 3,4-dicarboxypyridine]	no adverse side effects	measurable increase			
C=CC(C)(C)OC[C@H]1O[C@H](O[C@@H]2C3=C([C@H](C)COC(C)=O)C[C@H](O)[C@]3(C)/C=C3/[C@@H](COC)CC[C@H]3[C@@H](C)[C@H]2O)[C@H](O)[C@@H](OC(C)=O)[C@@H]1O [fusicoccin]			without adverse side effects	significant improvement in symptoms	activate
